Where two headings read alike, the source gives them in different places. Where a SMILES comes first, the peptide text is derived from it. [ ]: non-standard residue; d: D form. The star is where a group is joined. Fmoc = O=C(OCC1c2ccccc2-c2ccccc21)*; 12Ado = NCCCCCCCCCCCC(=O)O; StBu = CC(C)(C)S*
Test: MTT assay, cytotoxicity of the peptide
Format: cell-based
Details: read-out: cell viability
Source text: MTT assay was applied to evaluate the cytotoxicity effect of the peptide on HeLa, MCF-7, SK-N-MC, HEK293 and RAW264.7 cells (FIG. 12).

Measured: viability

CC(C)[C@H](NC(=O)[C@H](CCCCN)NC(=O)[C@H](CCCCN)NC(=O)[C@H](CCCCN)NC(=O)[C@H](CCCCN)NC(=O)[C@H](CCCCN)NC(=O)[C@@H]1CCCN1C(=O)OCC1c2ccccc2-c2ccccc21)C(=O)NCC(=O)N[C@@H](Cc1c[nH]cn1)C(=O)N[C@@H](Cc1c[nH]cn1)C(=O)N[C@@H](Cc1c[nH]cn1)C(=O)N[C@@H](Cc1c[nH]cn1)C(=O)NCCCCCCCCCCCC(=O)N[C@@H](CSSC(C)(C)C)C(=O)N[C@@H](Cc1c[nH]cn1)C(=O)N[C@@H](Cc1c[nH]cn1)C(=O)N[C@@H](CSSC(C)(C)C)C(=O)N[C@@H](CSSC(C)(C)C)C(=O)N[C@@H](Cc1c[nH]cn1)C(=O)N[C@@H](Cc1c[nH]cn1)C(=O)N[C@@H](CSSC(C)(C)C)C(=O)NCC(=O)N[C@@H](CO)C(=O)N1CCC[C@H]1C(=O)N[C@@H](Cc1c[nH]cn1)C(=O)N[C@@H](Cc1c[nH]cn1)C(=O)N[C@@H](CC(=O)O)C(=O)O [peptide_13, Fmoc-PKKKKKVG-HHHH (SEQ ID NO: 31)-C12-CstBuHHCstBuCstBuHHCstBuGSPHHD (SEQ ID NO: 39)] (Fmoc-PKKKKKVGHHHH[12Ado]C(StBu)HHC(StBu)C(StBu)HHC(StBu)GSPHHD-OH; C-terminus assumed)
> 80%: human, HEK293 cells, peptide concentration up to 4 μM | human, HeLa cells, peptide concentration up to 8 μM | human, MCF-7 cells, peptide concentration up to 8 μM | human, SK-N-MC cells, peptide concentration up to 4 μM | mouse, RAW264.7 cells, peptide concentration up to 4 μM

From patent US20250297035A1, “A PEPTIDE AND THE SELECTION METHOD THEREOF” (THE HONG KONG UNIVERSITY OF SCIENCE AND TECHNOLOGY, priority 2021, published 2025)
